Data taken from patent publication US20160194274A1, “PHENANTHRENE DERIVATIVES FOR USE AS MEDICAMENTS” (VALENTIA BIOPHARMA, priority 2012, published 2016).

Columns and labels:
[1] = system: ribonuclear foci in MyoD transformed fibroblasts derived from DM1 patients (>300 CTG repeats); assay: FISH detection of aberrant ribonuclear foci in human DM1 fibroblasts; format: cell-based; conditions: 24 h treatment, vs no treatment
Description: FIG. 1. Quantification of aberrant ribonuclear foci (DM1 disease hallmark) in human DM1 fibroblasts. Treatments with the compounds of Formula I were performed (VLT002, VLT015, VLT025, VLT024, VLT042, VLT040, VLT023, VLT026, VLT048, VLT045, VLT043, VLT049, VLT051 VLT053 and VLT056). (A) Number (medium) of foci/nuclei (No treatment vs. compound treatment). (B) Number of cells without foci (No treatment vs. compound treatment). n=100 minimum number of cells counted. T-Student test: * indicates p-value <0.05 ** p-value p<0.005 *** p-value p<0.0005.
After screening identification of the compounds of the invention (see FIG. 10), main validation was done using Fluorescence In Situ Hybridization (FISH) detection of aberrant aggregation of ribonuclear foci in cell lines from DM1 patients (see FIG. 1) and in DM1 Drosophila model (see FIG. 2) (Garcia-Lopez et al., Proc. Natl. Acad. Sci. USA. 108(29):11866-71 (2011)). Briefly, regarding human cells, it was used MyoD transformed fibroblasts derived from clinically diagnosed DM1 patients (>300 CTG repeats) routinely growing in DMEM supplemented with 10% heat-inactivated fetal bovine serum and maintained at 37° C. in a humidified incubator containing 5% CO2. To detect ribonuclear foci, cells were cultured over cover-slides in flat bottomed 24-well plates, after 24 h compounds of the invention were added to the cells at desiderate concentration, 24 h later in situ hybridization was done by fixing with 4% paraformaldehyde (PFA) 15 min at room temperature, and washed and stored in 70% ethanol. Cells were rehydrated with PBS and pre-hybridized 10 min at room temperature with a pre-hybridization buffer (formamide 30%, 2× saline-sodium citrate buffer (SSC)). Hybridization was performed in a light-proof wet chamber using the same pre-hybridization buffer supplemented with 0.02% bovine serum albumin (BSA), 1 mg/ml yeast tRNA (Sigma), 2 mM sodium (meta)vanadate, 1 mg/ml sperm DNA, 10% dextran sulfate and 1 ng/μl RNase free HPCL-purified Cy3-labeled (CAG)10 RNA. After hybridization cells were washed 2×15 minutes at 45° C. with the pre-hybridization buffer and washed with 1×PBS at room temperature. Slides were mounted with Vectashield solution with DAPI and number of foci by cell and number of cells with/without foci (see FIG. 1) were counted in a minimum of 100 cells for each treatment and concentration tested with a 63× objective in a Leica microscope. Same FISH approach was performed in Drosophila DM1 flies, where thoraces were embedded in OCT and transversal sections were taken with a Leica CM 15105 cryomicrotome. Sections were processed for in situ hybridization and counting for number of foci by cell with the same Cy3-labeled (CAG)10 probe (see FIG. 2).

[2] = system: UGGAA FAM-RNA probe; assay: Gel retardation assay with FAM-UGGAA probe (SCA31); format: binding
Description: FIG. 9. VLT002 binding assessment in additional toxic repeats linked to disease through hairpin formation.
Fluorescence Electrophoretic Mobility Shift Assay to test RNA-compound binding. Briefly, an aliquot of carboxyfluorescein (FAM)-CUG10 RNA (DM1, HDL2, SCA8; see FIG. 6) was heated at 70° C. for 5 min and diluted to 300 nM. The binding reaction with compounds was then carried out as described in (Garcia-Lopez A et al. Proc. Natl. Acad. Sci. USA. 108(29):11866-71 (2011)). The reaction mix was loaded onto 8% polyacrylamide nondenaturing gels, and electrophoresis was conducted at 4° C. in TB 1× for approximately 30 min at 240V, followed by fluorescence visualization. Quantification of the free RNA band intensity was carried out using the ImageJ software. A non-linear regression analysis was used to calculate EC50, based on a total of three experimental replicates. Same approach was developed with (FAM)-CCUG8 (DM2), CAG10 (SCA3), CGG10 (FXTAS), GGGGCC5 (ALS/FSD), UGGAA6 (SCA31) probes (see FIG. 9).

[3] = system: cTNT exon 5 splicing; assay: RT-PCR of cTNT splicing event in human myoblasts; format: cell-based
Description: FIG. 5. Recovering of DM1 aberrant cTNT splicing event. […] Upper section, right: Recovering was significant at 25 μM.
Additional assays involved: • Reverse Transcription-PCR (RT-PCR) to detect levels of normal/aberrant splicing events in specific genes. This approach was performed in human cells from patients (see FIG. 5) or from DM1 mouse (see FIG. 8 up) (HSA^LR, Mankodi A et al., Science, 289:1769-1773 (2000)) tissues (skeletal muscle), from which total RNA was extracted from ˜0.5-1.5×10^5 cells using the Zygem Tissue Plus kit. Serca 1, Cypher or cTNNT genes reverse transcription were performed and quantification of normal/aberrant spliced band forms was obtained (ImageJ software) after running PCR products in 2% agarose gels. As shown in FIGS. 5 and 8 compounds of the invention are able to recover disease phenotypes. • Drosophila Muscle Histology, where five-day old Drosophila thoraces were embedded in Epon for transversal, semi-thin sectioning. Muscle area was quantified (see FIG. 3) by binarizing images (equal dimensions) and quantifying pixels (%) within muscle tissue with ImageJ software. […] A minimum of 8 flies were analyzed in each case.

[4] = system: FAM-CUU probe; assay: Gel retardation assay with FAM-CUU probe (negative control); format: binding
[5] = system: Clcn1 protein; assay: Immunofluorescent detection of Clcn1 protein in HSA LR mouse quadriceps; format: in vivo; conditions: 100 μg
Description: FIG. 8. Recovering of disease phenotypes (molecular, histological and functional) in in vivo DM1 mice (HSA^LR). Upper section: VLT002 and VLT025 suppressed splicing defects in DM1 mouse skeletal muscles. VLT002 (10 μg) and VLT025 (100 μg) were intramuscular injected in the right tibialis anterior (TA) and left quadriceps (Q), respectively, of HSA^LR mice that expressed 300 CTG repeats. […] All graphs show the mean and SEM from VLT002 and VLT025-responsive animals. Middle section: Immunofluorescent detection of trans-membrane Clcn1 protein (cell outlines in gray) in quadriceps sections of no-DM1 mouse (control) and HSA^LR mice without treatment (10150.5 QD-DMSO treated) and after VLT025 treatment (10150.5 QI).
Also, an immunohistochemistry approach was used to measure ClC-1 protein levels (see FIG. 8 middle) in mouse tissues (skeletal muscle). Briefly, frozen sections of tibialis anterior & quadriceps muscle were prepared for routine immunostaining by using antibody against the ClC-1 protein (Alpha Diagnostic, San Antonio, Tex.). Primary antibody concentration used was 1:50 for ClC-1. Secondary antibody was goat anti-rabbit Alexa Fluor 488 and 546 (Invitrogen) at 1:400. Stacks of Z plane images were processed by using a blind point spread function. […]

Row | SMILES | aberrant ribonuclear foci: number of foci/nuclei (A) and/or number of cells without foci (B) [1] | binding to UGGAA (SCA31) probe [2] | recovering of normal cTNT splicing (ex5 exclusion) ([3]; DM1 myoblasts, 25 μM) | expression of housekeeping gene (GAPDH) ([3]; human myoblasts) | levels of cTNT exon 5 exclusion in no DM1 cells ([3]; no DM1 human myoblasts, dose-response) | binding to FAM-CUU probe [4] | Clcn1 fluorescent signal vs DMSO-treated contra-lateral limb [5]
1 | CN(C)CCc1cc2c(c3c1ccc1ccccc13)OCO2 [VLT002, Stephenanthrine] | significant reduction | caused retention of the complex in the well | partial recovering | No expression changes | no changes | did not bind | 
2 | C[N+](C)(C)CCc1cc2c(c3c1ccc1ccccc13)OCO2 [VLT025] | significant reduction |  |  |  |  |  | significantly stronger
